Results from publication PMC11915803, “Class B scavenger receptor resists WSSV replication by recognizing the viral lipid molecule and promoting phagocytosis” (Journal of Virology, 2025).

Target: T1, PcSRB (rPcSRB)
T1 construct: recombinant, pET-32a(+) BamHI/XhoI, His-tagged, tag kept
Assay: microscale thermophoresis, RED-tris-NTA labelled protein
Format: binding, Procambarus clarkii
Settings: PBS-T; His-tagged protein labelled, ligand unlabelled

For CC(C)CCC[C@@H](C)[C@H]1CC[C@H]2[C@@H]3CC=C4C=CCC[C@]4(C)[C@H]3CC[C@]12C [CD3,5, cholesta-3,5-diene], the Kd was 4.5 µM.
